We go through seven molecules from patent publication US20210354140A1, “MICROFLUIDIC DEVICE AND USES THEREOF” (Bar Ilan University, priority 2020, published 2021).

“Also recorded” adds a separate entry of the source. Like-named read-outs stand apart in the source and are kept apart here.

The subject of data set [1] is MCF-7 cells. Nature of the data set: MCF-7 cell response to a printed drug array, live/dead assay. The format is cell-based. Particulars: drugs spotted at 0, 0.1, 0.5, 0.7 and 1 mM; 2 hours incubation. How it is done:
MCF7 cells response to 4 different drugs (Doxorubicin, Docetaxel, Pacletoxel, Methotrexate) at 4 different concentrations (0.1-1 mM). The drugs were printed on the slide and aligned into drug chamber inside the device. Live/dead assay was performed by double staining dead cells (Red) and live cells (Green).
(§1) The evaluation of anticancer drug effect on cells vitality was conducted in two steps. First, Docetaxel was used, which is one of the first-line chemotherapies used for metastatic breast cancer. Docetaxel, at different concentrations (1 uM, 10 uM and 100 uM), was flown into the microfluidics device for 5 minutes, following the cell accommodation period. Then the cells, were incubated with the drug for 2 hours. Cell feeding, by diffusion, commenced until the experiment was finished. Live/dead assay was applied up to 48 hours following drug administration. After the evaluation of cells response to one drug-Docetaxel the effect was tested of an array of drugs on the cells. The drugs were printed on a glass substrate and their spotted array was aligned to the drug chamber in the microfluidic device.
(§2) Custom assays for cells vitality evaluation were applied. Living cells were stained with Calcein-AM (50 ng/ul in DMEM medium) (Biotest, Israel) which colors the cytoplasm. Dead cells were stained with Propidium Iodide (PI) (Sigma, Israel) (15 ng/ul in DMEM medium), coloring the nuclear. All cells nuclear (live and dead) were stained by Hoechst 33342 stain (Bis-Benzimide H3342 trihydro-chloride, Sigma, Israel) (10 ng/μl in DMEM medium). A solution of all three dyes was prepared and flowed within the chip. The cells were washed with the solution for 20 min at a pressure of 2 psi. Following dyes application, the controlled valves were closed and the device was incubated for 30 min at 37° C. 5% CO2 to allow cells staining. Next, the valves were opened and the device was washed by phenol-free DMEM medium for 15 min, to remove colures remains.
The drugs, Doxorubicin (Doxorubicin hydrochloride, Tocirs, USA), Docetaxel, Paclitaxel Methotrexate (drugs were supplied with the courtesy of Dr. Levanon, The institute of Oncology, Chaim Sheba Medical Center, Israel), were spotted on a microscope slide at 5 different concentrations (0, 0.1, 0.5, 0.7 and 1 mM) and then covered with the microfluidic device, encompassing the thy drugs inside the drug chamber. Cells were seeded on the device and cultured for 2 hours. Then the valve blocking the drug chamber was opened and the drugs were flooded and allowed to diffuse out and incubated with the cells for 2 hours. A different response was observed dynamics to the different drugs, expressed by different mortality rates.

The test system of data set [2] is pleural effusion samples from Non-small cell lung carcinoma patients. As to the kind of experiment: CSRA of patient pleural effusion samples, Propidium iodide cell viability. The format is cell-based, human. Particulars: 15 μM, 24-hour exposure; samples from 8 patients. The method, then:
The drug response of pleural effusion samples taken from 8 Non-small cell lung carcinoma patients was tested in a preliminary experiment. […] The genomic analysis could not predict however development of resistance. For each of the samples, the cells were first uploaded into the chip for a 24-hour acclimation period after which the cells were exposed different drugs. The 24 hours response to two […], Alectinib and Crizotinib (15 μM) is shown herein. Cell viability was measured using Propidium iodide, which dyes the nuclei of dead cells (magenta). It was known that the biopsies originated from patients that were treated with Alectinib and Crizotinib, however their response to each treatment was not known nor the order in which the drugs were administered, in order to avoid any sort of confirmation bias when collecting and analyzing the data. The moment when the pleural effusions were collected during the treatments was neither known. Crizotinib, like Alectinib is an ALK inhibitor and works by operating as a competitive inhibitor to the ATP binding site of the tyrosine kinase enzyme that the ALK gene codes for and in doing so prevents its carcinogenic activity. […] At the end of the 24-hour exposure period, the data from the experiments was analyzed and calculated to determine the survival and or mortality rate of the cells.

Data set [3] deals with Non-small cell lung carcinoma patients. Particulars: patients first treated with Alectinib, then replaced with Crizotinib; cited from earlier work.
The conditions of data set [4]: in vivo; cited from earlier work.
The subject of data set [5] is MCF-7 cells. As to the kind of experiment: Doxorubicin treatment specificity in microfluidic device, MCF-7 cells. Particulars: drug sensitive MCF7 cells; 24 hours of 10 μM doxorubicin.
The test system of data set [6] is MCF-7/dx (Doxorubicin resistant cells). As to the kind of experiment: Doxorubicin treatment specificity in microfluidic device, Doxorubicin resistant MCF-7/dx cells. Particulars: drug resistant MCF7/Dx cells; 24 hours of 10 μM doxorubicin.
In a further data set the test system is MCF7 cells. As to the kind of experiment: Live/dead staining assay in microfluidic device after Docetaxel exposure, MCF7 cells. The format is cell-based. Also noted: dose or concentration left out as unconfirmed. Particulars: Docetaxel for 2 hours, 48 hours after seeding; live/dead assay at T0, 5, 24, 48 hours; n=47; vs untreated control. How it is done: The cells were then dissociated from the culture dish at 60-70% confluence with 0.25% trypsin in PBS, resuspended in DMEM containing 10% FBS and introduced into the microfluidic device. […] MCF7/Dx cell line was grown in the presence of 10 ^M doxorubicin and cultured for 4 weeks in drug-free medium prior to use.
The evaluation of anticancer drug effect on cells vitality was conducted in two steps. First, Docetaxel was used, which is one of the first-line chemotherapies used for metastatic breast cancer. […] Then the cells, were incubated with the drug for 2 hours. Cell feeding, by diffusion, commenced until the experiment was finished. Live/dead assay was applied up to 48 hours following drug administration. […]
(§3) Statistical analysis was carried up using Microsoft Excel 2016 Data Analysis package and RStudio (RStudio Team (2015). RStudio: Integrated Development for R. RStudio, Inc., Boston, Mass.) Images were processed with NIS Elements Analysis software (ver. 40.20.01 Nikon, USA). For all experiments, variables are expressed as traditional boxplots, presenting median, maximum, minimum and Interquartiie range (IQR). […] In all cases, significance was defined as p<0.05, one way analysis of variance was evaluated using Anova, while multiple comparison was evaluated using Tukey's range test (post-hoc Anova analysis). […]

The subject of the next data set is 293T cells. Nature of the data set: Live/dead staining assay in microfluidic device after Docetaxel exposure, 293T cells. Particulars: Docetaxel for 2 hours, 48 hours after seeding; live/dead assay at T0, 5, 24, 48 hours. Set-up: dose or concentration left out as unconfirmed. The format is cell-based. The method, then:
as §1, with “Docetaxel, at different concentrations (1 uM, 10 uM and 100 uM), was flown into the microfluidics device for 5 minutes, following the cell accommodation period.” left out
Custom assays for cells vitality evaluation were applied. […]
as §3

In data set [7] the test system is cells in microfluidic cell chamber. Nature of the data set: Dynamics of cell death following Docetaxel treatment (FIG. 6), PI staining in cell chambers. The format is cell-based. Particulars: Docetaxel 10 uM, 2 hours exposure, 50 drug chambers vs 50 control chambers. How it is done: FIG. 6A: Live images of a representative cell chamber before (T0) and after (up to 20 hours) exposure to Docetaxel (10 uM). Dead cells were stained with Red (PI).
FIG. 6B: Box plot analysis of the mortality rate (%) of cells following 2 hours of exposure to Docetaxel (10 uM)—T0. Nearly 100 cells chambers were analyzed, 50 following drug exposure and 50 control—no drug exposure. […] Two tail paired T-test analysis were conducted.
Custom assays for cells vitality evaluation were applied. Living cells were stained with Calcein-AM (50 ng/ul in DMEM medium) (Biotest, Israel) which colors the cytoplasm. Dead cells were stained with Propidium Iodide (PI) (Sigma, Israel) (15 ng/ul in DMEM medium), coloring the nuclear. […]
Statistical analysis was carried up using Microsoft Excel 2016 Data Analysis package and RStudio (RStudio Team (2015). RStudio: Integrated Development for R. RStudio, Inc., Boston, Mass.) Images were processed with NIS Elements Analysis software (ver. 40.20.01 Nikon, USA). For all experiments, variables are expressed as traditional boxplots, presenting median, maximum, minimum and Interquartiie range (IQR). […] In all cases, significance was defined as p<0.05, one way analysis of variance was evaluated using Anova, while multiple comparison was evaluated using Tukey's range test (post-hoc Anova analysis).

Data set [8] relates to dispersed cells and cell clusters. Nature of the data set: cells. The format is cell-based. How it is done: Cells were exposed twice to Docetaxel once at a concentration of 1 μM and 24 hours later re-exposed to 10 μM Docetaxel for a period of 2 hrs. […] P value was determined using two-tail T-test (n=43).
FIG. 9A: Cells were exposed twice to Docetaxel once at a concentration of 1 μM and 48 hours later a second exposure to 10 μM. Images were taken 24 hours after the second drug exposure T24 (which is 120 hours post seeding).
Cells were exposed to 10 μM Docetaxel for 2 hours. The dynamic of cell death was detected using PI staining. […] Monitoring proceeded up to 28 hours.
as §2, with “Next, the valves were opened and the device was washed by phenol-free DMEM medium for 15 min, to remove colures remains.” left out

In the case of `CC(=O)O[C@H]1C(=O)[C@@]2(C)[C@H]([C@H](OC(=O)c3ccccc3)[C@]3(O)C[C@H](OC(=O)[C@H](O)[C@@H](NC(=O)c4ccccc4)c4ccccc4)C(C)=C1C3(C)C)[C@]1(OC(C)=O)CO[C@@H]1C[C@@H]2O` [Paclitaxel], in the data set with MCF-7 cells [1], the “dose dependence of sensitivity of MCF-7 cells” value (shortened to “dose dependence”) was “dose dependence sensitivity was observed” and the “mortality rate of MCF-7 cells versus drug dose” value is given as “mortality rate increased starting from the lower dose of drug (0.1 mM) (p<0.05)”.

For `C[C@@H](Oc1cc(-c2cnn(C3CCNCC3)c2)cnc1N)c1c(Cl)ccc(F)c1Cl` [Crizotinib], in data set [2], the “24 hours drug response of patient samples (resistance / sensitivity)” value is listed as “varying sensitivity; also recorded: varying from resistance to medium or high response”. The “patient response to treatment (patient history)” value in data set [3] is listed as “the response was different between patients”.

“Infliximab: purified, recombinant DNA-derived chimeric human-mouse IgG monoclonal antibody against TNF-α”: in data set [4], the serum half-life is 9.5 days and the “time detectable in serum after infusion treatment” value is on record as 8 weeks.

For `CN(Cc1cnc2nc(N)nc(N)c2n1)c1ccc(C(=O)N[C@@H](CCC(=O)O)C(=O)O)cc1` [Methotrexate], in the data set on MCF-7 cells [1], the “dose dependence” value is “dose dependence sensitivity was observed” and the “mortality rate of MCF-7 cells versus drug dose” value is listed as “mortality rate increased starting from the lower dose of drug (0.1 mM) (p<0.05)”.

Take `COc1cccc2c1C(=O)c1c(O)c3c(c(O)c1C2=O)C[C@@](O)(C(=O)CO)C[C@@H]3O[C@H]1C[C@H](N)[C@H](O)[C@H](C)O1` [Doxorubicin]: in the data set with MCF-7 cells [1], the “dose dependence” value was “dose dependence sensitivity was observed” and the “mortality rate of MCF-7 cells versus drug dose” value was “mortality rate increased starting from the lower dose of drug (0.1 mM) (p<0.05)”. Also, in the data set on MCF-7 cells [5], the “cells showing morphological features of apoptotic/necrotic processes” value is “about 98%”. Also, the “morphological features of apoptotic/necrotic processes” value in data set [6] was “almost absent”.

For `CCc1cc2c(cc1N1CCC(N3CCOCC3)CC1)C(C)(C)c1[nH]c3cc(C#N)ccc3c1C2=O` [Alectinib], in [2], the “24 hours drug response of patient samples (resistance / sensitivity)” value is listed as “All samples were resistant; also recorded: all the patients were resistant”. For the same molecule, the “patient response to treatment (patient history)” value in data set [3] is “developed resistance”.

As to `CC(=O)O[C@@]12CO[C@@H]1C[C@H](O)[C@@]1(C)C(=O)[C@H](O)C3=C(C)[C@@H](OC(=O)[C@H](O)[C@@H](NC(=O)OC(C)(C)C)c4ccccc4)C[C@@](O)([C@@H](OC(=O)c4ccccc4)[C@H]21)C3(C)C` [Docetaxel], the “mortality rate of MCF7 cells post drug exposure” value in the data set with MCF7 cells is “significantly increased (p<0.05) within 5 hours post drug exposure with no further increase in mortality rate up to 48 hours”. Moreover, the “mortality rate of 293T cells post drug exposure” value in the data set on 293T cells was “increase in mortality rate after 5 hrs (p<0.05) with no further deterioration”. Also, the “cells vitality immediately after 2 hrs of drug exposure (T0 drug)” value in [7] was “no differences in cells vitality”. Also, the “cells mortality rate twenty hours post cultivation” value in [7] (20 hours) was “following drug exposure a further significant increase was observed (p<0.05)”. The mortality (commonly the percentage killed) at 1 µM in [8] (read-out: Cluster mortality rate (Mean±S.E)) came out at 33 ± 5%. Also, the mortality at 1 µM in data set [8] (read-out: mortality rate of the dispersed cells population (Mean±S.E)) is 65 ± 6%. Besides, in the data set on MCF-7 cells [1], the “dose dependence” value was “dose dependence sensitivity was observed” and the “mortality rate of MCF-7 cells versus drug dose” value is recorded as “mortality rate increased starting from the lower dose of drug (0.1 mM) (p<0.05)”.
